The values below come from US20260138976A1 (Hoffmann-La Roche Inc., priority 2022, published 2026).

Assay [1] has as its target T1, DGKα (hDGKalpha(1-735)-N-His) (Homo sapiens, UniProt P23743).
T1 construct: hDGKalpha(1-735)-N-His; His (N); made in house; host or cells: Sf21 insect cells (baculovirus)
Nature of the assay: In vitro DGK inhibition assay, DGKalpha ADP Glo (in house). Format: biochemical. The settings on record: 4 nM DGKα, 25 μM ATP, 125 uM DLG in liposomes, 1 hour reaction. The essentials:
(§1)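 ADP-Glo luminescence measured ADP formed over 1 h by Sf21-expressed full-length human enzymes: DGKα at 4 nM with 25 µM ATP, DGKζ at 2 nM with 50 µM ATP, both on 125 µM DLG in PS/PC liposomes. Dose–response used 11 threefold dilutions at 2% final DMSO.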
Background: In ADP-Glo the light output rises with the ADP produced.

The target in assay [2] is T2, DGKζ (hDGKzeta(1-928)-N-His) (Homo sapiens, UniProt Q13574).
T2 construct: hDGKzeta(1-928)-N-His; His (N); made in house; host or cells: Sf21 insect cells (baculovirus)
Put plainly: In vitro DGK inhibition assay, DGKzeta ADP Glo (in house). Format: biochemical. Particulars: 2 nM DGKζ, 50 μM ATP, 125 uM DLG in liposomes, 1 hour reaction. In a few lines:
as §1

As a reminder, the IC50 is the concentration at which inhibition is half-maximal. Lower therefore signals higher potency.

The structures appear in SMILES notation.

T1 sequence (P23743 whole entry): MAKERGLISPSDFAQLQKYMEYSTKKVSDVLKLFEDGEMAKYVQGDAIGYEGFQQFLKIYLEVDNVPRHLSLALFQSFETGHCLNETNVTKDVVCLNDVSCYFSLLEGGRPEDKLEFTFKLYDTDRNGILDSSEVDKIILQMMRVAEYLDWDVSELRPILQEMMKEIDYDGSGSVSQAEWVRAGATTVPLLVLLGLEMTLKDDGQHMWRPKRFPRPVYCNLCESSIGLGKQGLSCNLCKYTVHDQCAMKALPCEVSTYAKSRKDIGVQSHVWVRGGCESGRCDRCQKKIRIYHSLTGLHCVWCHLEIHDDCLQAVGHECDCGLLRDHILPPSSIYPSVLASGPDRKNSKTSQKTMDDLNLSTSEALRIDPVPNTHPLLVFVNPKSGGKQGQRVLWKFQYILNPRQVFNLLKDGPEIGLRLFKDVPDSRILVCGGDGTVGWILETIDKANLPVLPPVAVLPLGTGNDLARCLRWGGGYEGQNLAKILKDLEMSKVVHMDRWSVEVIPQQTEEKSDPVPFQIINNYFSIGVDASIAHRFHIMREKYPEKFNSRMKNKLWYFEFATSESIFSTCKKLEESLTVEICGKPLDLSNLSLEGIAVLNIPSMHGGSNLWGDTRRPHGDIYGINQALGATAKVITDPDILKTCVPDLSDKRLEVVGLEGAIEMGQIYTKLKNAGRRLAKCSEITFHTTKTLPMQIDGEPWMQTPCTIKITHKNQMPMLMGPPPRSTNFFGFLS
T2 sequence (Q13574 whole entry): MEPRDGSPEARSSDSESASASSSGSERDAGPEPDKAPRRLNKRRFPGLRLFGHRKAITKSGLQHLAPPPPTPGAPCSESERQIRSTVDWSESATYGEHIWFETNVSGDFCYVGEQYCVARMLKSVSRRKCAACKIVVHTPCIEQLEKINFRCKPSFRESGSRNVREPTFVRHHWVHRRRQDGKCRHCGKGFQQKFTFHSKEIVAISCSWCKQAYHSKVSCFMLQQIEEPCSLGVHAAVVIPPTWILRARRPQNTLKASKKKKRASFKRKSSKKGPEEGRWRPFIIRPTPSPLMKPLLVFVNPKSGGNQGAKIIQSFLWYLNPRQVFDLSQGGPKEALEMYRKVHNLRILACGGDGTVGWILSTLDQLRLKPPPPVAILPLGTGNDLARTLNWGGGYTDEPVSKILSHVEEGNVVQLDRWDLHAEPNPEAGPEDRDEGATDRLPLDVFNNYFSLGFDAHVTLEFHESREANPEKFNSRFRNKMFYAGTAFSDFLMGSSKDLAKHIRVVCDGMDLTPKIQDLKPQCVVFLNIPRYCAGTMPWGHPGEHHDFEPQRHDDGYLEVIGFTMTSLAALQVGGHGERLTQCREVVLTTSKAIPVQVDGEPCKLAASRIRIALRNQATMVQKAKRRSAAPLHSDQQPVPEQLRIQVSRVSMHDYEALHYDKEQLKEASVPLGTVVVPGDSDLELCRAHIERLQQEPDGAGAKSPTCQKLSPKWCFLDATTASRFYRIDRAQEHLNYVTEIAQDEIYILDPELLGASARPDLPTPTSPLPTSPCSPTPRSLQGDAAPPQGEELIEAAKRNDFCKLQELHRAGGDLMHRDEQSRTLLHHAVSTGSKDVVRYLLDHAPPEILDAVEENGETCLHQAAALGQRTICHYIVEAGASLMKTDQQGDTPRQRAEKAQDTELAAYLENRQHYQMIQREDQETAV

As for `N[C@H]1CS(=O)(=O)c2cc(F)c(-c3noc(N4CCCC4)n3)cc2N(Cc2ccc(-c3noc(C(F)(F)F)n3)nc2)C1=O` [Example 15, (3R)-3-amino-8-fluoro-1,1-dioxo-7-(5-pyrrolidin-1-yl-1,2,4-oxadiazol-3-yl)-5-[[6-[5-(trifluoromethyl)-1,2,4-oxadiazol-3-yl]-3-pyridyl]methyl]-2,3-dihydro-1λ^6,5-benzothiazepin-4-one], the values for the IC50 in assay [1] and in assay [2] were 40.3 µM and 0.466 µM, respectively.
Turning to `COCC1CN(c2nnc(-c3ccc4c(c3)N(Cc3ccc(-c5noc(C(F)(F)F)n5)cc3)C(=O)[C@@H](N)CS4(=O)=O)o2)CCO1` (stereo partly drawn) [Example 164, (3R)-3-amino-7-[5-[2-(methoxymethyl)morpholin-4-yl]-1,3,4-oxadiazol-2-yl]-1,1-dioxo-5-[[4-[5-(trifluoromethyl)-1,2,4-oxadiazol-3-yl]phenyl]methyl]-2,3-dihydro-1λ^6,5-benzothiazepin-4-one], the IC50 in assay [1] was > 62.5 µM; in assay [2] it was 2.03 µM.
For the molecule `COc1ccc(-c2ccc(CN3C(=O)[C@@H](N)CS(=O)(=O)c4ccc(-c5nnc(N6CCOC(F)(F)C6)o5)cc43)cc2)cc1` [Example 79, (3R)-3-amino-7-[5-(2,2-difluoromorpholin-4-yl)-1,3,4-oxadiazol-2-yl]-5-[[4-(4-methoxyphenyl)phenyl]methyl]-1,1-dioxo-2,3-dihydro-1λ^6,5-benzothiazepin-4-one], the IC50 was 39.7 µM in assay [1] and 0.88 µM in assay [2].
Turning to `N[C@H]1CS(=O)(=O)c2ccc(-c3nnc(N4CCC(F)(F)CC4)o3)cc2N(Cc2ccc(-c3nc(C(F)(F)F)no3)cc2)C1=O` [Example 161, (3R)-3-amino-7-[5-(4,4-difluoro-1-piperidyl)-1,3,4-oxadiazol-2-yl]-1,1-dioxo-5-[[4-[3-(trifluoromethyl)-1,2,4-oxadiazol-5-yl]phenyl]methyl]-2,3-dihydro-1λ^6,5-benzothiazepin-4-one], the IC50 is > 62.5 µM in assay [1] and 1.92 µM in assay [2].
The matching figures for `COC(=O)N1CC2CC(c3nnc(-c4ccc5c(c4)N(Cc4ccc(-c6ccc(C(F)(F)F)cc6)cc4)C(=O)[C@@H](N)CS5(=O)=O)o3)(C2)C1` [Example 60, methyl 1-[5-[(3R)-3-amino-1,1,4-trioxo-5-[[4-[4-(trifluoromethyl)phenyl]phenyl]methyl]-2,3-dihydro-1λ^6,5-benzothiazepin-7-yl]-1,3,4-oxadiazol-2-yl]-3-azabicyclo[3.1.1]heptane-3-carboxylate]: 3.63 µM and 3.08 µM.
The matching figures for `CCC(O)(c1nnc(-c2ccc3c(c2)N(Cc2ccc(-c4noc(C5CC5)n4)cc2)C(=O)[C@@H](N)CS3(=O)=O)o1)C(F)(F)F` (stereo partly drawn) [Example 169]: > 19.8 µM and 1.77 µM.
As for `COc1ccc(-c2ccc(CN3C(=O)[C@@H](N)CS(=O)(=O)c4ccc(-c5nnc(N6CCC(F)(F)C6)o5)cc43)cc2)cc1` [Example 76, (3R)-3-amino-7-[5-(3,3-difluoropyrrolidin-1-yl)-1,3,4-oxadiazol-2-yl]-5-[[4-(4-methoxyphenyl)phenyl]methyl]-1,1-dioxo-2,3-dihydro-1λ^6,5-benzothiazepin-4-one], the IC50 in assay [1] was 26.1 µM; in assay [2], 1.08 µM.
Turning to `CC(C)(C)c1nnc(-c2ccc3c(c2)N(Cc2ccc(-c4noc(C(F)(F)F)n4)cc2)C(=O)[C@@H](N)CS3(=O)=O)o1` [Example 23, (3R)-3-amino-7-(5-tert-butyl-1,3,4-oxadiazol-2-yl)-1,1-dioxo-5-[[4-[5-(trifluoromethyl)-1,2,4-oxadiazol-3-yl]phenyl]methyl]-2,3-dihydro-1λ^6,5-benzothiazepin-4-one], the IC50 was 1.53 µM in assay [1] and 0.523 µM in assay [2].
Consider `Cc1noc(-c2ccc(CN3C(=O)[C@@H](N)CS(=O)(=O)c4cc(F)c(-c5nnc(C(C)(C)C)o5)cc43)cc2)n1` [Example 2], for which the values for the IC50 in assay [1] and in assay [2] were 0.613 µM and 0.128 µM, respectively.
Taken in the same sequence, the figures for `CC(N)(c1nnc(-c2ccc3c(c2)N(Cc2ccc(-c4noc(CC(F)(F)F)n4)cc2)C(=O)[C@@H](N)CS3(=O)=O)o1)C(F)(F)F` (stereo partly drawn) [Example 33, (3R)-3-amino-7-[5-(1-amino-2,2,2-trifluoro-1-methyl-ethyl)-1,3,4-oxadiazol-2-yl]-1,1-dioxo-5-[[4-[5-(2,2,2-trifluoroethyl)-1,2,4-oxadiazol-3-yl]phenyl]methyl]-2,3-dihydro-1λ^6,5-benzothiazepin-4-one] were 23.8 µM and 2.64 µM.
On to `CC1(c2nnc(-c3ccc4c(c3)N(Cc3ccc(-c5ccc(C(F)(F)F)cc5)cc3)C(=O)[C@@H](N)CS4(=O)=O)o2)CCO1` (stereo partly drawn) [Example 48, (3R)-3-amino-7-[5-(2-methyloxetan-2-yl)-1,3,4-oxadiazol-2-yl]-1,1-dioxo-5-[[4-[4-(trifluoromethyl)phenyl]phenyl]methyl]-2,3-dihydro-1lambda6,5-benzothiazepin-4-one], for which the IC50 in assay [1] is > 62.5 µM; in assay [2], 1.59 µM.
`COCCN1CC(c2nnc(-c3ccc4c(c3)N(Cc3ccc(-c5noc(C(F)(F)F)n5)cc3)C(=O)[C@@H](N)CS4(=O)=O)o2)CC(F)(F)C1` (stereo partly drawn) [Example 182, (3R)-3-amino-7-[5-[5,5-difluoro-1-(2-methoxyethyl)-3-piperidyl]-1,3,4-oxadiazol-2-yl]-1,1-dioxo-5-[[4-[5-(trifluoromethyl)-1,2,4-oxadiazol-3-yl]phenyl]methyl]-2,3-dihydro-1λ^6,5-benzothiazepin-4-one]: the IC50 was > 62.5 µM in assay [1] and 2 µM in assay [2].
Take `CC1(c2nnc(-c3ccc4c(c3)N(Cc3ccc(-c5noc(C(F)(F)F)n5)cc3)C(=O)[C@@H](N)CS4(=O)=O)o2)COC1` [Example 149, (3R)-3-amino-7-[5-(3-methyloxetan-3-yl)-1,3,4-oxadiazol-2-yl]-1,1-dioxo-5-[[4-[5-(trifluoromethyl)-1,2,4-oxadiazol-3-yl]phenyl]methyl]-2,3-dihydro-1λ^6,5-benzothiazepin-4-one]: the results for the IC50 in assay [1] and in assay [2] were > 62.5 µM and 4.25 µM, respectively.
Take `N[C@H]1CS(=O)(=O)c2ccc(-c3nnc(N4CCOC5(CC5)C4)o3)cc2N(Cc2ccc(-c3noc(C(F)(F)F)n3)cc2)C1=O` [Example 77]: the IC50 in assay [1] came out at 48.2 µM; in assay [2] it was 1.53 µM.
In the case of `CC1(Nc2nnc(-c3ccc4c(c3)N(Cc3ccc(-c5noc(C(F)(F)F)n5)cc3)C(=O)[C@@H](N)CS4(=O)=O)o2)CC(F)(F)C1` [Example 72, (3R)-3-amino-7-[5-[(3,3-difluoro-1-methyl-cyclobutyl)amino]-1,3,4-oxadiazol-2-yl]-1,1-dioxo-5-[[4-[5-(trifluoromethyl)-1,2,4-oxadiazol-3-yl]phenyl]methyl]-2,3-dihydro-1λ^6,5-benzothiazepin-4-one], the IC50 in assay [1] is > 62.5 µM; in assay [2], 20.9 µM.
`N[C@H]1CS(=O)(=O)c2ccc(-c3noc(C4(N)COC4)n3)cc2N(Cc2ccc(-c3noc(C(F)(F)F)n3)cc2)C1=O` [Example 84, (3R)-3-amino-7-[5-(3-aminooxetan-3-yl)-1,2,4-oxadiazol-3-yl]-1,1-dioxo-5-[[4-[5-(trifluoromethyl)-1,2,4-oxadiazol-3-yl]phenyl]methyl]-2,3-dihydro-1lambda6,5-benzothiazepin-4-one]: the IC50 in assay [1] was > 62.5 µM; in assay [2] it was 3.07 µM.
The matching figures for `CC(C)(C)c1nc(-c2cc3c(cc2F)S(=O)(=O)C[C@H](N)C(=O)N3Cc2ccc(-c3ccc(CO)cc3)nc2)no1` [Example 7, (3R)-3-amino-7-(5-tert-butyl-1,2,4-oxadiazol-3-yl)-8-fluoro-5-[[6-[4-(hydroxymethyl)phenyl]-3-pyridyl]methyl]-1,1-dioxo-2,3-dihydro-1λ^6,5-benzothiazepin-4-one]: > 62.5 µM and 1.4 µM.
Consider `CC(C)(C)c1nnc(-c2ccc3c(c2)N(Cc2ccc(-n4ccc(C(F)(F)F)n4)cc2)C(=O)[C@@H](N)CS3(=O)=O)o1` [Example 27], for which the values for the IC50 in assay [1] and in assay [2] were 2.95 µM and 0.758 µM, respectively.
On to `CC(C)Nc1nnc(-c2cc3c(cc2F)S(=O)(=O)C[C@H](N)C(=O)N3Cc2ccc(-c3noc(C(F)(F)F)n3)cc2)o1` [Example 6, (3R)-3-amino-8-fluoro-7-[5-(isopropylamino)-1,3,4-oxadiazol-2-yl]-1,1-dioxo-5-[[4-[5-(trifluoromethyl)-1,2,4-oxadiazol-3-yl]phenyl]methyl]-2,3-dihydro-1λ^6,5-benzothiazepin-4-one], for which the figures for the IC50 in assay [1] and in assay [2] were 1.87 µM and 0.696 µM, respectively.
In the case of `CC1(c2nnc(-c3ccc4c(c3)N(Cc3ccc(-c5ccc(C(F)(F)F)cn5)cc3)C(=O)[C@@H](N)CS4(=O)=O)o2)COC1` [Example 150, (3R)-3-amino-7-[5-(3-methyloxetan-3-yl)-1,3,4-oxadiazol-2-yl]-1,1-dioxo-5-[[4-[5-(trifluoromethyl)-2-pyridyl]phenyl]methyl]-2,3-dihydro-1λ^6,5-benzothiazepin-4-one], the IC50 in assay [1] is > 19.8 µM; in assay [2] it was 9.91 µM.
Taken in the same sequence, the figures for `Cn1ccc(-c2ccc(CN3C(=O)[C@@H](N)CS(=O)(=O)c4cc(F)c(-c5nnc(C(C)(C)C)o5)cc43)cc2)n1` [Example 1, (3R)-3-amino-7-(5-tert-butyl-1,3,4-oxadiazol-2-yl)-8-fluoro-5-[[4-(1-methylpyrazol-3-yl)phenyl]methyl]-1,1-dioxo-2,3-dihydro-1λ^6,5-benzothiazepin-4-one] were 2.36 µM and 0.488 µM.
